From paper PMC7351026, “Serum Half-Lives for Short- and Long-Chain Perfluoroalkyl Acids after Ceasing Exposure from Drinking Water Contaminated by Firefighting Foam” (Environmental Health Perspectives, 2020)

Tests used:
[1] = PFAS levels in serum samples of airport employees (LC/MS/MS); settings: for Serum level in the first samples, median (range) / Relative composition of PFAS in serum, molar concentration basis / Relative composition of PFAS in serum, weight basis / Serum concentration, molar basis / Serum concentration, weight basis: all 26 airport employees; for Relative composition of PFAS in serum, molar concentration basis / Relative composition of PFAS in serum, weight basis: first serum samples; for Serum concentration, molar basis / Serum concentration, weight basis: median of first serum samples
How it was run: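 LC/MS/MS quantification (BEH C18, 5 mM ammonium acetate water:methanol to methanol gradient) after protein precipitation of 25 μL serum with isotopically labeled internal standards, FBS-matrix calibration. Samples stored at −80°C, collected at monthly intervals from September 2018 and run together in a single batch.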

[2] = Individual serum elimination rate and half-life (linear regression per employee); settings: for Elimination rate / HL (half-life) / half-life: individual estimate; for half-life: human, serum, oral, HL (half-life);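 for HL (half-life): half-life in years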
How it was run: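 One-compartment, first-order model: for each employee and PFAS, the slope β of log serum concentration versus elapsed days (from clean water supply, over five samplings) gave k = −β and half-life = ln2/k. A positive slope left the half-life undetermined.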

[3] = 1st sampling (September 2018), count 17
[4] = 2nd sampling (October 2018), count 17
[5] = 3rd sampling (November, 2018), count 17
[6] = 4th sampling (December 2018), count 16
[7] = 5th sampling (January 2019), count 16
[8] = employees participated in first blood sampling and repeated blood and urine sampling, N=17
[9] = employees participated in first blood sampling only, N=9, 11-14 d after end of exposure

SMILES: O=C(O)C(F)(F)C(F)(F)C(F)(F)C(F)(F)C(F)(F)F [PFHxA, perfluorohexanoic acid]
- Serum PFAS level, 25 percentile [1, 3]: 0.24
- Serum PFAS level, 75 percentile [1, 3]: 0.48
- Serum PFAS level, Max [1, 3]: 0.92
- Serum PFAS level, Median [1, 3]: 0.37
- Serum PFAS level, Min [1, 3]: 0.16
- Serum PFAS level, 25 percentile [1, 4]: 0.26
- Serum PFAS level, 75 percentile [1, 4]: 0.51
- Serum PFAS level, Max [1, 4]: 1.2
- Serum PFAS level, Median [1, 4]: 0.31
- Serum PFAS level, Min [1, 4]: 0.14
- Serum PFAS level, 25 percentile [1, 5]: 0.27
- Serum PFAS level, 75 percentile [1, 5]: 0.56
- Serum PFAS level, Max [1, 5]: 1.4
- Serum PFAS level, Median [1, 5]: 0.34
- Serum PFAS level, Min [1, 5]: 0.13
- Serum PFAS level, 25 percentile [1, 6]: 0.22
- Serum PFAS level, 75 percentile [1, 6]: 0.46
- Serum PFAS level, Max [1, 6]: 0.87
- Serum PFAS level, Median [1, 6]: 0.30
- Serum PFAS level, Min [1, 6]: 0.08
- Serum PFAS level, 25 percentile [1, 7]: 0.21
- Serum PFAS level, 75 percentile [1, 7]: 0.52
- Serum PFAS level, Max [1, 7]: 1.2
- Serum PFAS level, Median [1, 7]: 0.33
- Serum PFAS level, Min [1, 7]: 0.11
- Serum level in the first samples, median (range) [1]: 0.38 (0.16–1.1) ng/mL
- PFAS in first serum sample, median (range) [1, 8]: 0.37 (0.16–0.92) ng/mL
- PFAS in first serum sample, median (range) [1, 9]: 0.38 (0.23–1.1) ng/mL
- Initial serum PFAS level, max ([1]; females (N=7)): 0.54 ng/mL
- Initial serum PFAS level, median ([1]; females (N=7)): 0.24 ng/mL
- Initial serum PFAS level, min ([1]; females (N=7)): 0.19 ng/mL
- Relative composition of PFAS in serum, molar concentration basis [1]: 0.4%
- Relative composition of PFAS in serum, weight basis [1]: 0.3%
- Initial serum PFAS level, Max ([1]; males (N=19)): 1.1 ng/mL
- Initial serum PFAS level, Min ([1]; males (N=19)): 0.16 ng/mL
- Initial serum PFAS level, median ([1]; males (N=19)): 0.42 ng/mL
- Serum concentration, molar basis [1]: 0.0012
- Serum concentration, weight basis [1]: 0.38
- Individuals without decrement in serum concentration (no individual estimated half-life) ([2]; 5-month follow-up, 17 employees): 53%
- Elimination rate ([2]; subject 1, 5 samples): 0.2 yearly
- HL (half-life) ([2]; subject 1, 5 samples): 4.1 year
- Elimination rate ([2]; subject 2, 5 samples): −0.1 yearly
- Elimination rate ([2]; subject 3, 5 samples): 1.6 yearly
- HL (half-life) ([2]; subject 3, 5 samples): 0.4 year
- Elimination rate ([2]; subject 4, 5 samples): −0.6 yearly
- Elimination rate ([2]; subject 5, 5 samples): −1.7 yearly
- Elimination rate ([2]; subject 6, 4 samples): −1.6 yearly
- Elimination rate ([2]; subject 7, 5 samples): 1.5 yearly
- HL (half-life) ([2]; subject 7, 5 samples): 0.5 year
- Elimination rate ([2]; subject 8, 5 samples): −0.7 yearly
- Elimination rate ([2]; subject 9, 5 samples): −0.2 yearly
- Elimination rate ([2]; subject 10, 5 samples): 0.4 yearly
- HL (half-life) ([2]; subject 10, 5 samples): 1.9 year
- Elimination rate ([2]; subject 11, 5 samples): 2.8 yearly
- HL (half-life) ([2]; subject 11, 5 samples): 0.2 year
- Elimination rate ([2]; subject 12, 5 samples): −0.3 yearly
- Elimination rate ([2]; subject 13, 5 samples): −0.7 yearly
- Elimination rate ([2]; subject 14, 4 samples): −0.5 yearly
- Elimination rate ([2]; subject 15, 5 samples): 2.7 yearly
- HL (half-life) ([2]; subject 15, 5 samples): 0.3 year
- Elimination rate ([2]; subject 16, 5 samples): 1.1 yearly
- HL (half-life) ([2]; subject 16, 5 samples): 0.6 year
- Elimination rate ([2]; subject 17, 5 samples): 2.5 yearly
- HL (half-life) ([2]; subject 17, 5 samples): 0.3 year

SMILES: O=C(O)C(F)(F)C(F)(F)C(F)(F)C(F)(F)C(F)(F)C(F)(F)C(F)(F)F [PFOA, perfluorooctanoic acid]
- Serum PFAS level, 25 percentile [1, 3]: 8.7
- Serum PFAS level, 75 percentile [1, 3]: 16
- Serum PFAS level, Max [1, 3]: 31
- Serum PFAS level, Median [1, 3]: 13
- Serum PFAS level, Min [1, 3]: 5.0
- Serum PFAS level, 25 percentile [1, 4]: 8.3
- Serum PFAS level, 75 percentile [1, 4]: 14
- Serum PFAS level, Max [1, 4]: 28
- Serum PFAS level, Median [1, 4]: 11
- Serum PFAS level, Min [1, 4]: 4.1
- Serum PFAS level, 25 percentile [1, 5]: 7.9
- Serum PFAS level, 75 percentile [1, 5]: 14
- Serum PFAS level, Max [1, 5]: 28
- Serum PFAS level, Median [1, 5]: 11
- Serum PFAS level, Min [1, 5]: 4.6
- Serum PFAS level, 25 percentile [1, 6]: 7.5
- Serum PFAS level, 75 percentile [1, 6]: 13
- Serum PFAS level, Max [1, 6]: 27
- Serum PFAS level, Median [1, 6]: 10
- Serum PFAS level, Min [1, 6]: 4.3
- Serum PFAS level, 25 percentile [1, 7]: 8.0
- Serum PFAS level, 75 percentile [1, 7]: 14
- Serum PFAS level, Max [1, 7]: 27
- Serum PFAS level, Median [1, 7]: 10
- Serum PFAS level, Min [1, 7]: 4.4
- Serum level in the first samples, median (range) [1]: 9.1 (2.9–31) ng/mL
- PFAS in first serum sample, median (range) [1, 8]: 13 (5.0–31) ng/mL
- PFAS in first serum sample, median (range) [1, 9]: 6.5 (2.9–11) ng/mL
- Initial serum PFAS level, max ([1]; females (N=7)): 20 ng/mL
- Initial serum PFAS level, median ([1]; females (N=7)): 6.7 ng/mL
- Initial serum PFAS level, min ([1]; females (N=7)): 5.0 ng/mL
- Relative composition of PFAS in serum, molar concentration basis [1]: 8.1%
- Relative composition of PFAS in serum, weight basis [1]: 8.2%
- Initial serum PFAS level, Max ([1]; males (N=19)): 31 ng/mL
- Initial serum PFAS level, Min ([1]; males (N=19)): 2.9 ng/mL
- Initial serum PFAS level, median ([1]; males (N=19)): 11 ng/mL
- Serum concentration, molar basis [1]: 0.022
- Serum concentration, weight basis [1]: 9.1
- Serum level, median (range) ([1]; second to fifth samplings, 17 airport employees): 10 (4.1–28) ng/mL
- half-life ([2]; subject 1, 5 samples): 877 days
- half-life ([2]; subject 2, 5 samples): 1060 days
- half-life ([2]; subject 3, 5 samples): 438 days
- half-life ([2]; subject 4, 5 samples): 840 days
- half-life ([2]; subject 5, 5 samples): 804 days
- half-life ([2]; subject 6, 4 samples): 1060 days
- half-life ([2]; subject 7, 5 samples): 584 days
- half-life ([2]; subject 9, 5 samples): 694 days
- half-life ([2]; subject 10, 5 samples): 767 days
- half-life ([2]; subject 11, 5 samples): 548 days
- half-life ([2]; subject 12, 5 samples): 365 days
- half-life ([2]; subject 13, 5 samples): 584 days
- half-life ([2]; subject 14, 4 samples): 584 days
- half-life ([2]; subject 15, 5 samples): 402 days
- half-life ([2]; subject 16, 5 samples): 986 days
- half-life ([2]; subject 17, 5 samples): 438 days
- Elimination rate ([2]; subject 1, 5 samples): 0.3 yearly
- Elimination rate ([2]; subject 2, 5 samples): 0.2 yearly
- Elimination rate ([2]; subject 3, 5 samples): 0.6 yearly
- Elimination rate ([2]; subject 4, 5 samples): 0.3 yearly
- Elimination rate ([2]; subject 5, 5 samples): 0.3 yearly
- Elimination rate ([2]; subject 6, 4 samples): 0.2 yearly
- Elimination rate ([2]; subject 7, 5 samples): 0.4 yearly
- Elimination rate ([2]; subject 8, 5 samples): 0.007 yearly
- Elimination rate ([2]; subject 9, 5 samples): 0.4 yearly
- Elimination rate ([2]; subject 10, 5 samples): 0.3 yearly
- Elimination rate ([2]; subject 11, 5 samples): 0.5 yearly
- Elimination rate ([2]; subject 12, 5 samples): 0.7 yearly
- Elimination rate ([2]; subject 13, 5 samples): 0.4 yearly
- Elimination rate ([2]; subject 14, 4 samples): 0.4 yearly
- Elimination rate ([2]; subject 15, 5 samples): 0.6 yearly
- Elimination rate ([2]; subject 16, 5 samples): 0.3 yearly
- Elimination rate ([2]; subject 17, 5 samples): 0.6 yearly
